Results reported in paper PMC12735718, “Novel Adamantane–Sclareol Hybrids Exploit ROS Vulnerability to Overcome Multidrug-Resistance in Glioblastoma Cells” (Molecules, 2025).

Tests used:
[1] = tested on: H2O2 and peroxynitrite anion levels in U87 cells; assay: ROS detection by DHR, U87; type: cell-based, human; conditions: 4 µM, 24 h and 48 h
Protocol: (§1) The levels of ROS were measured in U87 and U87-TxR cells by flow cytometry. The production of superoxide anions was detected using DHE fluorescence dye, while production of H2O2 and peroxynitrite anions was detected using DHR fluorescence dye. Cells were seeded in 6-well plates (150,000 cell/well) and incubated overnight. The cells were then treated with compounds 2 or 5 (4 μM) for 24 h and 48 h. CDDP (10 μM) was used as a positive control. After the treatment period, the cells were stained with DHE or DHR for 30 min in the dark. Following incubation, cells were harvested with trypsinization and washed twice in cold phosphate buffer solution (PBS). Fluorescence was measured on a CytoFlex flow cytometer (Beckman Coulter, Indianapolis, IN, USA). Green fluorescence from the oxidized DHR dye was detected at 525 nm, while the red fluorescence from ethidium derived from DHE was detected at 585 nm. At least 10,000 events were assayed for each sample. The results were analyzed by CytExpert 2.4.0.28 software (Beckman Coulter, Indianapolis, IN, USA).

U87-TxR cells = assay: MTT cell viability assay, U87-TxR; type: cell-based, human; conditions: Homo sapiens, U87-TxR; 72 h treatment, MTT, MDR cell line
Protocol: (§2) Cell viability was measured using the colorimetric MTT assay based on the reduction of MTT into formazan dye. Cell lines were seeded into 96-well cell culture plates (4000 cells/well) in appropriate medium. After overnight incubation, cells were treated with increasing concentrations of 1, 2, 3, 4, 5, and 6 (0.5, 1, 2, 4, and 8 µM). After 72 h treatment, MTT solution (4 mg/mL) was added and plates were incubated at 37 °C with 5% CO2 for 3 h. After incubation, formazan crystals were dissolved using 100 µL DMSO, resulting in a purple color. The absorbance was measured at 570 nm with a reference wavelength of 690 nm using an automated microplate reader (MultiskanSky, Thermo Scientific, USA). The IC50 values were determined by non-linear regression analysis in GraphPad Prism 8.0.2. software (GraphPad Software, Boston, MA, USA).

[2] = tested on: TrxR (SH-SY5Y cell lysate); assay: Colorimetric detection of cell lysate TrxR activity (DTNB); type: biochemical, human; conditions: 50 µM, DTNB absorbance at 412 nm over 20 min
Source text: We further analyzed the potential of adamantane–sclareol hybrids to inhibit TrxR enzyme activity using a colorimetric assay for the detection of TrxR activity in cell lysates. This kinetic assay is based on the ability of TrxR to reduce its substrate 5,5ʹ-dithiobis(2-nitrobenzoic acid) (DTNB) to the yellow product 5-thio-2-nitrobenzoic acid (TNB) in the presence of NADPH. The absorbance of the produced TNB is considered equivalent to the enzymic activity of TrxR. In the kinetic assay, the absorbance of DTNB was measured over 20 min, resulting in a curve showing the dependence of absorbance on time.
TrxR enzyme activity in cell lysate was determined by the reduction of the TrxR substrate DTNB to the yellow product TNB in the presence of NADPH (Acros Organics, Thermo Fisher Scientific, Waltham, MA, USA). Lysate from human neuroblastoma SH-SY5Y cells was used for the TrxR assay. SH-SY5Y cells were grown to 80% confluence, washed twice with PBS, and detached using Hanks-based enzyme-free dissociation solution (Millipore, Billeri-ca, MA, USA). Collected cells were centrifuged at 2000 rpm for 3 min and rinsed in PBS buffer. After additional centrifugation, cells were lysed on ice using Lysis Buffer (50 mM Tris, 150 mM NaCl, 1 mM EDTA, 1% NP40, 0.1% SDS, 0.5% Na-deoxycholate, pH 7.8) containing protease inhibitor mix G (SERVA Electrophoresis GmbH, Heidelberg, Germany) and phosphatase inhibitor cocktail 3 (Sigma-Aldrich, Darmstadt, Germany). The cell lysates were centrifuged at 16,000× g for 15 min at 4 °C. The protein concentrations of the supernatants were determined using a Pierce^TM BCA protein assay kit (Thermo Fisher Scientific, Waltham, MA, USA). The reactions were run in 96-well plates, in a final volume of 100 μL, in 50 mM potassium phosphate buffer (pH 7.0) containing 50 μg of cell lysate proteins, 1 mM EDTA, 50 mM KCl, 0.2 mg/mL BSA, and 0.25 mM NADPH. […] Enzyme kinetics were monitored on an automated microplate reader (MultiskanSky, Thermo Fisher Scientific, Waltham, MA, USA) by measuring the increase in absorbance at 412 nm for 20 min. […]

[3] = tested on: intracellular superoxide anion in U87 and U87-TxR cells; assay: Superoxide anion detection by DHE; type: cell-based, human; conditions: 4 µM, 24 h and 48 h
Protocol: as §1

[4] = tested on: H2O2 and peroxynitrite anion levels in U87-TxR cells; assay: ROS detection by DHR, U87-TxR; type: cell-based, human; conditions: 4 µM, 24 h and 48 h
Protocol: as §1

[5] = tested on: ASK1 protein in U87 cells; assay: ASK1 protein expression by flow cytometry, U87; type: cell-based, human; conditions: U87, 2 µM and 4 µM, 48 h
Protocol: Flow cytometry was used to assess TrxR1 and ASK1 protein expression in the U87 and U87-TxR cell lines. Cells were seeded and allowed to attach overnight before exposure to compounds 2 and 5 at final concentrations of 2 μM and 4 μM. After 48 h treatment, cells were collected by trypsinization, rinsed with PBS, and subsequently fixed in 4% PFA for 10 min at room temperature. For permeabilization, ice-cold absolute methanol was added, and the samples were maintained at −20 °C overnight. Following this step, cells were washed in PBS and incubated for 1 h in 0.5% BSA/PBS to block nonspecific binding. Pelleted cells were then resuspended in primary antibodies diluted in 0.5% BSA/PBS [(ASK1, 1:200 (ab45178, Abcam, Cambridge, UK); TrxR1, 1:500 (ab124954, Abcam, Cambridge, UK)] and incubated overnight at +4 °C. Cells were then washed in PBS and incubated for 1 h at room temperature in the dark with fluorescently labeled anti-rabbit IgG secondary antibody (Alexa Fluor 488, ab150097, Abcam, Cambridge, UK), diluted 1:1000 in 0.5% BSA/PBS. Following incubation, samples were washed, resuspended in cold PBS, and analyzed by flow cytometry. A minimum of 10,000 events per sample were acquired, and fluorescence was detected in a green fluorescence channel (525 nm). Data acquisition and processing were performed using CytExpert software (version 2.4.0.28; Beckman Coulter, Indianapolis, IN, USA).

SVG p12 cells = assay: MTT cell viability assay, SVG p12; type: cell-based, human; conditions: for IC50: Homo sapiens, SVGp12, 72 h treatment, MTT, normal glial cell line; for Selectivity Index: IC50 SVG p12 vs average IC50 in A-172, U87 and U87-TxR
Protocol: as §2

Q: Which results are given for `CC1(C)CCC[C@]2(C)[C@@H](CC[C@@](C)(O)/C=C/c3ccc(CNCCCCCCCCNCC45CC6CC(CC(C6)C4)C5)o3)[C@](C)(O)CC[C@@H]12` [Compound 5]?
A: H2O2 and peroxynitrite anion levels (DHR) [1]: slight or no increase; IC50 (U87-TxR cells): 3.78 ± 0.118 µM; TrxR enzyme activity [2]: do not inhibit TrxR enzyme activity; intracellular superoxide anion levels (DHE) [3]: no significant changes; DHR fluorescence (H2O2 and peroxynitrite anion levels) [4]: increase in DHR fluorescence; ASK1 level [5]: remained unchanged; IC50 (SVG p12 cells): 6.69 ± 0.128 µM; Selectivity Index (SVG p12 cells): 1.470

Q: With `CC1(C)CCC[C@]2(C)[C@@H](CC[C@@](C)(O)/C=C/c3ccc(CNCCCCCCCCNCC45CC6CC(CC(C6)C4)C5)s3)[C@](C)(O)CC[C@@H]12` [Compound 2] as the molecule, how does the “H2O2 and peroxynitrite anion levels (DHR)” value [1] read?
A: The value was “slight or no increase”.

Q: What about the IC50 (U87-TxR cells) of the same molecule?
A: The IC50 was 1.96 ± 0.049 µM.

Q: And the TrxR enzyme activity [2]?
A: Its TrxR enzyme activity is “do not inhibit TrxR enzyme activity”.

Q: And the “intracellular superoxide anion levels (DHE)” value [3]?
A: Its value is “no significant changes”.

Q: And the “DHR fluorescence (H2O2 and peroxynitrite anion levels)” value [4]?
A: The value was “increase in DHR fluorescence”.

Q: What about the ASK1 level [5] of the same molecule?
A: The ASK1 level was “remained unchanged”.

Q: And the IC50 (SVG p12 cells)?
A: Its IC50 is 6.2 ± 0.145 µM.

Q: What about the “Selectivity Index” value (SVG p12 cells) of the same molecule?
A: The value was 2.813 ^S.
